Data taken from ChEMBL document CHEMBL1201862, “PubChem BioAssay data set” (2004).
Values joined by “and” are separate entries in the source; they are usually repeats but may differ in a detail not shown here. Equal entries are not always repeated.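 Following 48 hours of exposure in 96-well plates, responses at five concentrations were used to interpolate endpoints linearly. Here, GI50 denotes the concentration required for 50% inhibition of growth.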 Active and inactive are the calls of the source. Rule as the data show it: active = GI50 up to about 1.1 µM and inactive = higher.

What was measured:
Assay in all cases: growth of human tumour cells (NCI), 48 h
SNB-19 = test system: SNB-19
A498 = test system: A498
T47D = test system: T47D
HL-60 = test system: HL-60
PC-3 = test system: PC-3
M14 = test system: M14
MDA-MB-435 = test system: MDA-MB-435
OVCAR-5 = test system: OVCAR-5
MOLT-4 = test system: MOLT-4
SF-295 = test system: SF-295
HCT-116 = test system: HCT-116
IGROV-1 = test system: IGROV-1
BT-549 = test system: BT-549
LOX IMVI = test system: LOX IMVI
786-0 = test system: 786-0
Hs-578T = test system: Hs-578T
NCI/ADR-RES = test system: NCI/ADR-RES
COLO 205 = test system: COLO 205
HOP-62 = test system: HOP-62

SMILES | GI50 (SNB-19) | GI50 (A498) | GI50 (T47D) | GI50 (HL-60) | GI50 (PC-3) | GI50 (M14) | GI50 (MDA-MB-435) | GI50 (OVCAR-5) | GI50 (MOLT-4) | GI50 (SF-295) | GI50 (HCT-116) | GI50 (IGROV-1) | GI50 (BT-549) | GI50 (LOX IMVI) | GI50 (786-0) | GI50 (Hs-578T) | GI50 (NCI/ADR-RES) | GI50 (COLO 205) | GI50 (HOP-62)
COc1ccc(NC=O)c(C(O)CCNC(C)=O)c1 (stereo not given) | > 100 µM (inactive) | > 100 µM (inactive) | > 100 µM (inactive) | > 100 µM (inactive) | > 100 µM (inactive) | > 100 µM (inactive) | > 100 µM (inactive) | > 100 µM (inactive) | > 100 µM (inactive) | > 100 µM (inactive) | > 100 µM (inactive) | > 100 µM (inactive) | > 100 µM (inactive) | > 100 µM (inactive) | > 100 µM (inactive) | > 100 µM (inactive) | > 100 µM (inactive) | > 100 µM (inactive) | 
O=c1oc2c(Cl)cc(Cl)cc2cc1-c1cn2c(n1)sc1ccccc12 | > 100 µM (inactive) |  | 49.8 µM (inactive) | 23.9 µM (inactive) | 47.1 µM (inactive) | 78.7 µM (inactive) | 38.4 µM (inactive) | > 100 µM (inactive) | 20.4 µM (inactive) | 59.2 µM (inactive) | 27.9 µM (inactive) | 44.1 µM (inactive) | 28.6 µM (inactive) | 60.3 µM (inactive) | 32.9 µM (inactive) | > 100 µM (inactive) | > 100 µM (inactive) | 90.4 µM (inactive) | 53.5 µM (inactive)
CC(CCC(=O)O)[C@H]1CCC2[C@H]3C(CC(=O)[C@@]21C)[C@@]1(C)CCC(O)C[C@H]1C[C@@H]3O (stereo not given in full) | > 100 µM (inactive) | > 100 µM (inactive) | > 100 µM (inactive) | > 100 µM (inactive) | > 100 µM (inactive) | > 100 µM (inactive) | > 100 µM (inactive) | > 100 µM (inactive) | > 100 µM (inactive) |  | > 100 µM (inactive) | > 100 µM (inactive) | > 100 µM (inactive) | > 100 µM (inactive) | > 100 µM (inactive) |  | > 100 µM (inactive) | > 100 µM (inactive) | > 100 µM (inactive)
COc1cc2c(cc1OC)C(c1ccccc1CCCCl)=NCC2 | > 100 µM (inactive) | > 100 µM (inactive) | 42.8 µM (inactive) | 28.8 µM (inactive) | 49.9 µM (inactive) | > 100 µM (inactive) | 10.8 µM (inactive) | > 100 µM (inactive) | 80.4 µM (inactive) | 68.7 µM (inactive) | 45.9 µM (inactive) | 33.9 µM (inactive) | 38.3 µM (inactive) |  | > 100 µM (inactive) | 69 µM (inactive) | > 100 µM (inactive) | 40 µM (inactive) | > 100 µM (inactive)
S=C(N/N=C\c1ccccn1)N(Cc1ccccn1)Cc1ccccn1 | 3.47 µM (inactive) |  | 1.46 µM (inactive) |  | 6.89 µM (inactive) | 1.1 µM (active) | 4.45 µM (inactive) | 13 µM (inactive) | 0.0582 µM (active) | 1.65 µM (inactive) | 0.557 µM (active) | 0.427 µM (active) | 1.93 µM (inactive) | 0.646 µM (active) | 0.697 µM (active) | 16 µM (inactive) | 1.19 µM (inactive) |  | 2.71 µM (inactive)
OCCN(CCO)c1ccc2c(-c3ccccc3)cc(N(CCO)CCO)nc2n1 | > 100 µM (inactive) | 54.2 µM (inactive) | > 100 µM (inactive) |  | > 100 µM (inactive) | > 100 µM (inactive) | > 100 µM (inactive) | > 100 µM (inactive) | > 100 µM (inactive) | > 100 µM (inactive) | > 100 µM (inactive) | > 100 µM (inactive) | > 100 µM (inactive) |  | > 100 µM (inactive) | > 100 µM (inactive) | > 100 µM (inactive) | > 100 µM (inactive) | > 100 µM (inactive)
O=C(/C=C/c1ccccc1)c1ccccn1 |  | 13 µM (inactive) and 17.5 µM (inactive) | 23.8 µM (inactive) and 13 µM (inactive) |  | 19.1 µM (inactive) and 21.1 µM (inactive) | 14.5 µM (inactive) | 26.5 µM (inactive) and 18.9 µM (inactive) |  | 23.8 µM (inactive) | 24 µM (inactive) and 18.4 µM (inactive) |  | 10.5 µM (inactive) and 17.4 µM (inactive) | 24 µM (inactive) and 18.8 µM (inactive) | 10.9 µM (inactive) and 17.6 µM (inactive) | 12.3 µM (inactive) and 17.2 µM (inactive) | 22.6 µM (inactive) | 22.2 µM (inactive) and 28.4 µM (inactive) | 18.6 µM (inactive) and 22.2 µM (inactive) | 
COc1ccc(-n2c(CCCC(=O)O)nc3c2C(=O)c2ccccc2C3=O)cc1 | > 100 µM (inactive) | > 100 µM (inactive) | 88.3 µM (inactive) | 31.1 µM (inactive) |  | 15.5 µM (inactive) | 26.4 µM (inactive) | > 100 µM (inactive) | 68.1 µM (inactive) | 43 µM (inactive) | 36.6 µM (inactive) | 79.3 µM (inactive) | 8.79 µM (inactive) | 54.8 µM (inactive) | > 100 µM (inactive) | > 100 µM (inactive) | > 100 µM (inactive) | 37.1 µM (inactive) | 
